Legend:
Type in all cases: in vivo
ALOMY [1] = test: Post-emergence herbicidal activity, glasshouse pot test; settings: Alopecurus myosuroides; application post-emergence; rate 1000 g/Ha; evaluated after 13 days
Procedure, shortened: (§1)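 Seeds were sown in standard soil and cultivated for 8 days under controlled glasshouse conditions. Seedlings were then sprayed with an aqueous solution of the formulated compound containing 0.5% Tween 20. Injury was rated after a further 13 days, where 5 indicated total damage.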

AMARE [2] = test: as above; settings: Amaranthus retroflexus; application post-emergence; rate 1000 g/Ha; evaluated after 13 days
Procedure, shortened: as §1

ECHCG [3] = test: as above; settings: Echinochloa crus-galli; application post-emergence; rate 1000 g/Ha; evaluated after 13 days
Procedure, shortened: as §1

ABUTH [4] = test: as above; settings: Abutilon theophrasti; application post-emergence; rate 1000 g/Ha; evaluated after 13 days
Procedure, shortened: as §1

SETFA [5] = test: as above; settings: Setaria faberi; application post-emergence; rate 1000 g/Ha; evaluated after 13 days
Procedure, shortened: as §1

ZEAMX [6] = test: as above; settings: Zea mays; application post-emergence; rate 1000 g/Ha; evaluated after 13 days
Procedure, shortened: as §1

ALOMY [7] = test: Pre-emergence herbicidal activity, glasshouse pot test; settings: rate 1000 g/Ha, evaluated after 13 days, scale 0-5
Procedure, shortened: (§2)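 Damage rated 13 days post-treatment on a 0-5 scale, 5 meaning total plant damage. Pots were sprayed pre-emergence, one day after sowing, with an acetone/water-derived aqueous spray containing 0.5% Tween 20. Plants grew under 14 h light, 65% humidity, 24/16 °C, watered twice daily.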

AMARE [8] = test: as above; settings: rate 1000 g/Ha, evaluated after 13 days, scale 0-5
Procedure, shortened: as §2

ECHCG [9] = test: as above; settings: rate 1000 g/Ha, evaluated after 13 days, scale 0-5
Procedure, shortened: as §2

SETFA [10] = test: as above; settings: rate 1000 g/Ha, evaluated after 13 days, scale 0-5
Procedure, shortened: as §2

ABUTH [11] = test: as above; settings: rate 1000 g/Ha, evaluated after 13 days, scale 0-5
Procedure, shortened: as §2

ZEAMX [12] = test: as above; settings: rate 1000 g/Ha, evaluated after 13 days, scale 0-5
Procedure, shortened: as §2

Row | SMILES | Post-emergence herbicidal activity ALOMY (damage score 0-5) (ALOMY [1]) | Post-emergence herbicidal activity AMARE (damage score 0-5) (AMARE [2]) | Post-emergence herbicidal activity ECHCG (damage score 0-5) (ECHCG [3]) | Post-emergence herbicidal activity ABUTH (damage score 0-5) (ABUTH [4]) | Post-emergence herbicidal activity SETFA (damage score 0-5) (SETFA [5]) | Post-emergence herbicidal activity ZEAMX (damage score 0-5) (ZEAMX [6]) | ALOMY damage score, application pre-emergence (ALOMY [7]) | AMARE damage score, application pre-emergence (AMARE [8]) | ECHCG damage score, application pre-emergence (ECHCG [9]) | SETFA damage score, application pre-emergence (SETFA [10]) | ABUTH damage score, application pre-emergence (ABUTH [11]) | ZEAMX damage score, application pre-emergence (ZEAMX [12])
1 | CCOC1C(O)N(c2cc(C(F)(F)F)c(-c3cncnc3)cn2)C(=O)N1C (stereo not drawn) [Compound A14] | 4 | 5 | 5 | 5 | 5 | 3 | 4 | 5 | 5 | 5 |  | 
2 | COC1C(O)N(c2cc(C(F)(F)F)c(-c3cncnc3)cn2)C(=O)N1C (stereo not drawn) [Compound A15] | 4 | 5 | 4 | 5 | 4 | 0 | 3 | 5 | 3 | 4 |  | 
3 | CCOC1C(O)N(c2cc(C(F)(F)F)c(I)cn2)C(=O)N1C (stereo not drawn) [Compound A16] | 5 | 5 | 5 | 5 | 5 | 2 | 4 | 5 | 5 | 4 |  | 
4 | CN1C(=O)N(c2cc(C(F)(F)F)c(I)cn2)C(O)C1O (stereo not drawn) [Compound A17] | 5 | 5 | 5 | 5 | 5 | 4 | 3 | 5 | 4 | 3 |  | 
5 | COC1C(O)N(c2cc(C(F)(F)F)c(I)cn2)C(=O)N1C (stereo not drawn) [Compound A18] | 5 | 5 | 5 | 5 | 5 | 3 | 4 | 5 | 5 | 4 |  | 
6 | CC1NC(=O)N(c2cc(C(F)(F)Cl)ccn2)C1O (stereo not drawn) [Compound A91] |  | 5 | 5 | 5 | 4 | 3 |  | 5 | 4 | 4 | 5 | 2
7 | CC1C(O)N(c2cc(Cl)ccn2)C(=O)N1C (stereo not drawn) [Compound A92] |  | 5 | 5 | 5 | 5 | 4 |  | 5 | 5 | 4 | 5 | 3
8 | CCN1CC(O)N(c2cc(C(F)(F)F)ccn2)C1=O (stereo not drawn) [Compound A95] |  | 5 | 5 | 5 | 5 | 2 |  | 5 | 5 | 5 | 5 | 1
9 | CCO[C@@H]1[C@@H](OC(=O)[C@](OC)(c2ccccc2)C(F)(F)F)N(c2cc(C(F)(F)F)ccn2)C(=O)N1C [Compound A102] |  | 5 | 2 | 5 | 1 | 1 |  | 5 | 4 | 3 | 5 | 1
10 | CCO[C@H]1[C@H](OC(=O)[C@](OC)(c2ccccc2)C(F)(F)F)N(c2cc(C(F)(F)F)ccn2)C(=O)N1C [Compound A103] |  | 2 | 0 | 0 | 1 | 1 |  | 2 | 1 | 4 | 1 | 1
11 | CON1C(=O)N(c2cc(C(F)(F)F)ccn2)C(NCc2ccccc2)[C@@H]1C (stereo partly drawn) [Compound A104] |  | 5 | 5 | 5 | 5 | 5 |  | 5 | 5 | 5 | 4 | 3
12 | COCc1cnc(N2C(=O)N(C)C(C)C2O)cc1C(F)(F)F (stereo not drawn) [Compound A105] |  | 5 | 5 | 5 | 5 | 5 |  | 5 | 5 | 5 | 5 | 4
13 | CC1C(O)N(c2cc(C(F)(F)F)ccn2)C(=O)N1C(F)F (stereo not drawn) [Compound A106] |  | 5 | 4 | 5 | 4 | 1 |  | 5 | 4 | 3 | 5 | 2
14 | C=CCN1C(=O)N(c2cc(C(F)(F)F)ccn2)C(O)C1C (stereo not drawn) [Compound A107] |  | 5 | 5 | 5 | 5 | 3 |  | 5 | 5 | 4 | 5 | 2
15 | COCCOCc1cnc(N2C(=O)N(C)C(C)C2O)cc1C(F)(F)F (stereo not drawn) [Compound A108] |  | 5 | 5 | 5 | 5 | 5 |  | 5 | 5 | 4 | 5 | 2
